The subject of assay [1] is A549. Description: Induction of apoptosis in human A549 cells assessed as early apoptotic cells level at 40 nM incubated for 24 hrs by Annexin V-FITC/PI staining based FACS flow cytometry (reference value: 0.65%). Type of assay: functional.
The subject of assay [2] is A549. Kind of assay: Induction of cell cycle arrest in human A549 cells assessed as accumulation at G2/M phase at 40 nM incubated for 24 hrs by propidium iodide staining based FACS flow cytometry. It counts as functional.
The target in assay [3] is T1, Tubulin alpha (Homo sapiens) (UniProt P0DPH7+P68366+Q71U36+P68363+Q9BQE3+Q6PEY2+A6NHL2+Q9NY65). Kind of assay: Inhibition of alpha tubulin polymerization in human A549 cells assessed as induction of cell border shrinkage of microtubules at 40 nM by Immunofluorescent staining based fluorescence microscopy.
The next assay has as its system MCF7. Kind of assay: cells. The conditions noted are these: Homo sapiens, MCF7, 72 h.
In assay [4] the target is T1, Tubulin alpha (Homo sapiens). Kind of assay: Inhibition of alpha tubulin polymerization in human A549 cells assessed as induction of microtubule network dis-organization at 40 nM by Immunofluorescent staining based fluorescence microscopy. It counts as cell-based.
Assay [5] relates to A549. Kind of assay: Induction of apoptosis in human A549 cells assessed as live cells level at 40 nM incubated for 24 hrs by Annexin V-FITC/PI staining based FACS flow cytometry (reference value: 96.83%). It counts as functional.
Assay [6] relates to A549. Kind of assay: Induction of apoptosis in human A549 cells assessed as late apoptotic cells level at 40 nM incubated for 24 hrs by Annexin V-FITC/PI staining based FACS flow cytometry (reference value: 2.15%). Type of assay: functional.
Assay [7] deals with A549. Kind of assay: Induction of apoptosis in human A549 cells assessed as induction of cell shrinkage at 40 nM incubated for 24 hrs microscopy. Type of assay: functional, cell-based.
The test system of assay [8] is A549. Description: Induction of apoptosis in human A549 cells assessed as induction of chromatin condensation at 40 nM incubated for 24 hrs microscopy. Type of assay: functional, cell-based.
In a further assay the test system is HepG2. Description: Growth inhibition of human HepG2 cells incubated for 72 hrs by MTT assay. The conditions noted are these: HepG2, 72 h. It counts as functional, cell-based.
Assay [9] concerns A549. Kind of assay: Induction of apoptosis in human A549 cells assessed as induction of nucleus fragmentation at 40 nM incubated for 24 hrs microscopy. It counts as functional, cell-based.
Assay [10] has as its system A549. Kind of assay: Induction of apoptosis in human A549 cells assessed as necrotic cells level at 40 nM incubated for 24 hrs by Annexin V-FITC/PI staining based FACS flow cytometry (reference value: 0.37%). It counts as functional.
Assay [11] has as its system A549. Description: Induction of apoptosis in human A549 cells assessed as induction of cytoplasmic membrane blebbing at 40 nM incubated for 24 hrs microscopy. Type of assay: functional, cell-based.
Another assay relates to HeLa. Description: Growth inhibition of human HeLa cells incubated for 72 hrs by MTT assay. Type of assay: functional, cell-based.
Another assay concerns NCI-H460. Kind of assay: Growth inhibition of human NCI-H460 cells incubated for 48 hrs by MTT assay. The conditions noted are these: NCI-H460, 48 h. Type of assay: functional, cell-based.
Assay [12] has as its system A549. Description: Growth inhibition of human A549 cells incubated for 48 hrs by MTT assay. It counts as functional, cell-based. The conditions noted are these: A549, 48 h.
Assay [13] has as its target T2, Tubulin (Sus scrofa) (UniProt P02554+P02550). Kind of assay: Displacement of [3H]colchicine from biotinylated porcine tubulin at 5 uM incubated for 2 hrs by competition scintillation proximity. It counts as protein assay.
In assay [14] the target is T2, Tubulin (Sus scrofa). Kind of assay: Displacement of [3H]colchicine from biotinylated porcine tubulin at 1 uM incubated for 2 hrs by competition scintillation proximity. It counts as protein assay.
The target in a further assay is Tubulin (Sus scrofa, UniProt P02554+P02550). Description: (§1) Inhibition of porcine brain tubulin polymerization incubated for 60 mins by fluorescence-based assay.
The subject of another assay is PC-3. Kind of assay: Growth inhibition of human PC3 cells incubated for 72 hrs by MTT assay. It counts as functional, cell-based. The conditions noted are these: PC-3, 72 h.
Assay [15] has as its target T2, Tubulin (Sus scrofa). The assay is described as §1.

Activity, inhibition and IC50 data for 19 compounds are collected here from ChEMBL document CHEMBL4428037 (J Med Chem, 2016).

The source made the active and inactive calls. No cut-off for these calls is given here. Where only a bound is given, the exact number is not on record here.

Consider `COc1cc2c(c(OC)c1OC)-c1ccc(OC)c(=O)cc1[C@@H](NC(C)=O)CC2` [COLCHICINE], for which the Activity in the assay on A549 [1] is given as 8.38%; in the assay with A549 [2], 37%; in the assay with A549 [5] it was 84.59%; with A549 [6], 5.89%; in the assay with A549 [10] it was 1.14%. Besides, the inhibition entry in assay [3] and in assay [4] was “Active” in each case. Further, the IC50 in the assay with MCF7 is 47 nM; with HepG2, 19 nM; with HeLa it was 7.6 nM; in the assay on NCI-H460 it was 49.3 nM; with A549 [12] it was 59.1 nM. In addition, the result with A549 [7], in the assay with A549 [8], in the assay on A549 [9] and with A549 [11] was Active.
Regarding `COc1ccc(S(=O)(=O)Nc2cccnc2Nc2ccc(O)cc2)cc1` [ABT-751], the IC50 with MCF7 was determined as 3790 nM; in the assay with HepG2, 447 nM; against Tubulin it was 2.79 µM; in the assay with HeLa, 355 nM; in the assay on PC-3, 460 nM. Also, the results for the inhibition at Tubulin (Sus scrofa) [13] and at Tubulin (Sus scrofa) [14] were 68% and 39%, respectively.
`C#CCNC(=O)COc1cc2c(cc1OCC)Cc1c(Nc3cccc(OCC)c3)nn(C)c1-2`: the half-maximal inhibitory concentration (IC50) with MCF7 came out at 2110 nM; with HepG2, 587 nM; with HeLa, 505 nM; in the assay with PC-3, 1780 nM.
For `CCOc1cccc(Nc2nn(C)c3c2Cc2cc(OCC)c(OCC(=O)NCCC#N)cc2-3)c1`, in that order: 4610 nM, 2420 nM, 1450 nM and 8600 nM.
Turning to `COc1ccc(/C=C\c2cc(OC)c(OC)c(OC)c2)cc1O` [COMBRETASTATIN A4], the IC50 turned out to be 12.5 nM with MCF7; 2.1 nM with HepG2; 3.4 nM in the assay on PC-3; 35.8 nM in the assay with NCI-H460; 49 nM in the assay with A549 [12]. The compound also had an inhibition at Tubulin (Sus scrofa) [13] of 92%.
With `CCOc1cccc(Nc2nn(C)c3c2Cc2cc(OCC)c(OCC(=O)NC4CC4)cc2-3)c1`, the IC50 in the assay on MCF7 is 3070 nM; with HepG2 it was 653 nM; with HeLa, 720 nM; with PC-3, 1400 nM.
For `CCNC(=O)COc1cc2c(cc1OCC)Cc1c(Nc3cccc(OCC)c3)nn(C)c1-2` the same measures were 1470 nM, 1310 nM, 623 nM and 3740 nM.
For `CCOc1cccc(Nc2nn(C)c3c2Cc2cc(OCC)c(OCC(=O)NCC4CC4)cc2-3)c1` the same measures were more than 50000 nM, 1700 nM, 3200 nM and 4600 nM.
For `CCOc1cccc(Nc2nn(C)c3c2Cc2cc(OCC)c(OCC(=O)NCCOC)cc2-3)c1` the same measures were 1530 nM, 447 nM, 490 nM and 800 nM.
Take `CCOc1cccc(Nc2nn(C)c3c2Cc2cc(OCC)c(OCC(=O)NOC)cc2-3)c1`: the IC50 with MCF7 worked out at 1670 nM; in the assay on HepG2 it was 853 nM; in the assay with HeLa, 470 nM; in the assay with PC-3 it was 2900 nM.
In the case of `CCOc1cccc(Nc2nn(C)c3c2Cc2cc(OCC)c(OCC(=O)NC)cc2-3)c1`, the IC50 amounted to 892 nM in the assay on MCF7, 142 nM with HepG2, 90 nM in the assay with HeLa and 640 nM in the assay on PC-3.
`C=CCNC(=O)COc1cc2c(cc1OCC)Cc1c(Nc3cccc(OCC)c3)nn(C)c1-2`: the IC50 was found to be 765 nM with MCF7, 853 nM in the assay on HepG2, 690 nM in the assay on HeLa and 1940 nM in the assay on PC-3.
`CCOc1cccc(Nc2nn(C)c3c2Cc2cc(OCC)c(OCC(=O)NCCO)cc2-3)c1`: the IC50 with MCF7 came to 662 nM; with HepG2, 1800 nM; with HeLa it was 415 nM; in the assay with PC-3, 3680 nM.
For `CCOc1cccc(Nc2nn(C)c3c2Cc2cc(OCC)c(OCC(=O)NCCN(C)C)cc2-3)c1` the same measures were 2990 nM, 340 nM, 375 nM and 460 nM.
On to `CC(=O)O[C@H]1C(=O)[C@@]2(C)[C@H]([C@H](OC(=O)c3ccccc3)[C@]3(O)C[C@H](OC(=O)[C@H](O)[C@@H](NC(=O)c4ccccc4)c4ccccc4)C(C)=C1C3(C)C)[C@]1(OC(C)=O)CO[C@@H]1C[C@@H]2O` [PACLITAXEL], for which the IC50 was determined as 18 nM in the assay on HeLa and 21 nM with PC-3.
For `CCOc1cccc(Nc2nn(C)c3c2Cc2cc(OCC)c(OCC(=O)NN)cc2-3)c1`, the IC50 with MCF7 is 579 nM; in the assay with HepG2 it was 400 nM; in the assay with HeLa, 350 nM; in the assay on PC-3, 760 nM.
In the case of `CCOc1cccc(Nc2nn(C)c3c2Cc2cc(OCC)c(OCC(=O)N(C)C)cc2-3)c1`, the IC50 is 6160 nM in the assay with MCF7, 920 nM in the assay with HepG2, 720 nM in the assay with HeLa and 1780 nM in the assay on PC-3.
Turning to `CCOc1cccc(Nc2nn(C)c3c2Cc2cc(OCC)c(OCC(=O)NCCN)cc2-3)c1`, the IC50 was 1850 nM in the assay with MCF7, 1400 nM in the assay on HepG2, 865 nM in the assay with HeLa and 1520 nM in the assay with PC-3.
As for `CCOc1cccc(Nc2nn(C)c3c2Cc2cc(OCC)c(OCC(=O)NO)cc2-3)c1`, the IC50 stood at 33.5 nM with MCF7; 16.4 nM with HepG2; 5.33 µM against Tubulin; 13.2 nM in the assay with HeLa; 23.5 nM in the assay with PC-3. In addition, the values for the inhibition at Tubulin (Sus scrofa) [13], at Tubulin (Sus scrofa) [14] and on Tubulin (Sus scrofa) [15] were 63%, 31% and “Dose-dependent effect”, respectively.
